The text below walks through data of ChEMBL document CHEMBL1765025, “4-Aminothiazolyl analogues of GE2270 A: antibacterial lead finding” (2011).

Type in all cases: functional
Experiment [1] concerns Enterococcus faecium. Nature of the experiment: Antibacterial activity against Enterococcus faecium by CLSI M100-S19 method.
For experiment [2], the system named is Staphylococcus aureus. Nature of the experiment: Antibacterial activity against methicillin-resistant Staphylococcus aureus by CLSI M100-S19 method.
The subject of experiment [3] is Streptococcus pyogenes. Description: Antibacterial activity against Streptococcus pyogenes ATCC BAA-595 by CLSI M100-S19 method.
Experiment [4] concerns Enterococcus faecalis. Nature of the experiment: Antibacterial activity against Enterococcus faecalis ATCC 29212 by CLSI M100-S19 method.
The test system of experiment [5] is Enterococcus. Description: Antibacterial activity against vancomycin-resistant Enterococcus.
Experiment [6] has as its system Staphylococcus. Nature of the experiment: Antibacterial activity against methicillin-resistant Staphylococcus.

In brackets after ≈: the same amount, converted by molar mass. A value given as a limit tells only on which side of the number the result lay.

`CNC(=O)C[C@@H]1NC(=O)c2csc(n2)-c2ccc(-c3nc(NC(=O)OC(C)(C)C)cs3)nc2-c2csc(n2)-c2csc(n2)[C@H]([C@@H](O)c2ccccc2)NC(=O)CNC(=O)c2nc(sc2COC)[C@H](C(C)C)NC(=O)c2nc1sc2C`: the MIC in experiment [1], in experiment [2], in experiment [3] and in experiment [4] was more than 32 µg/mL in each case.

As to `CNC(=O)C[C@@H]1NC(=O)c2csc(n2)-c2ccc(-c3nc(NS(C)(=O)=O)cs3)nc2-c2csc(n2)-c2csc(n2)[C@H]([C@@H](O)c2ccccc2)NC(=O)CNC(=O)c2nc(sc2COC)[C@H](C(C)C)NC(=O)c2nc1sc2C`, the MIC in experiment [1] was 4 µg/mL (≈ 3.41 µM); in experiment [2], 2 µg/mL (≈ 1.7 µM); in experiment [3], more than 32 µg/mL; in experiment [4] it was 2 µg/mL (≈ 1.7 µM).

Turning to `CNC(=O)C[C@@H]1NC(=O)c2csc(n2)-c2ccc(-c3nc(C4=N[C@H](C(=O)N5CCC[C@H]5C(N)=O)CO4)cs3)nc2-c2csc(n2)-c2csc(n2)[C@H]([C@@H](O)c2ccccc2)NC(=O)CNC(=O)c2nc(sc2COC)[C@H](C(C)C)NC(=O)c2nc1sc2C`, the MIC was determined as 1 µg/mL (≈ 0.775 µM) in experiment [5]; 0.25 µg/mL (≈ 0.194 µM) in experiment [1]; 1 µg/mL (≈ 0.775 µM) in experiment [6]; 0.25 µg/mL (≈ 0.194 µM) in experiment [2]; 1 µg/mL (≈ 0.775 µM) in experiment [3]; 0.5 µg/mL (≈ 0.387 µM) in experiment [4].

As to `CNC(=O)C[C@@H]1NC(=O)c2csc(n2)-c2ccc(-c3nc(NC(C)=O)cs3)nc2-c2csc(n2)-c2csc(n2)[C@H]([C@@H](O)c2ccccc2)NC(=O)CNC(=O)c2nc(sc2COC)[C@H](C(C)C)NC(=O)c2nc1sc2C`, the MIC in experiment [1] was 1 µg/mL (≈ 0.878 µM); in experiment [2], 2 µg/mL (≈ 1.76 µM); in experiment [3], more than 32 µg/mL; in experiment [4] it was 1 µg/mL (≈ 0.878 µM).

Consider `CNC(=O)C[C@@H]1NC(=O)c2csc(n2)-c2ccc(C(N)=O)nc2-c2csc(n2)-c2csc(n2)[C@H]([C@@H](O)c2ccccc2)NC(=O)CNC(=O)c2nc(sc2COC)[C@H](C(C)C)NC(=O)c2nc1sc2C`, for which the MIC in experiment [1] was more than 32 µg/mL; in experiment [2], more than 32 µg/mL; in experiment [3], more than 32 µg/mL; in experiment [4], 32 µg/mL (≈ 30.7 µM).

In general, MIC refers to the smallest concentration in the dilution series that meets the test's criterion for growth inhibition. A high value points to a less susceptible organism.
